Results as given in the supplement of paper PMC10307832.

Assays:
Assay in all cases: relative viability (nuclei count vs DMSO), 5 days (fraction); higher = more cells survive
NCI-H2009 = system: NCI-H2009
Summary of the method: (§1)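 The day after seeding in 1536-well plates, lung cancer cell lines were treated by pin tool with a single drug, or with a fixed anchor-drug dose together with five library-drug doses (not always all listed) in √10 steps. After 5 days, a combined fix-and-stain solution (final 0.05% Triton X-100, 1% formaldehyde, 1 ug/ml Hoechst) was added. Nuclei counted on 4× images gave relative viability as treated counts over vehicle counts, reported as the median of duplicate plates.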

NCI-H358 = system: NCI-H358
Summary of the method: as §1

NCI-H661 = system: NCI-H661
Summary of the method: as §1

NCI-H2342 = system: NCI-H2342
Summary of the method: as §1

NCI-H460 = system: NCI-H460
Summary of the method: as §1

NCI-H522 = system: NCI-H522
Summary of the method: as §1

NCI-H1623 = system: NCI-H1623
Summary of the method: as §1

NCI-H1648 = system: NCI-H1648
Summary of the method: as §1

HCC-78 = system: HCC-78
Summary of the method: as §1

EBC-1 = system: EBC-1
Summary of the method: as §1

A549 = system: A549
Summary of the method: as §1

IA-LM = system: IA-LM
Summary of the method: as §1

Calu-6 = system: Calu-6
Summary of the method: as §1

NCI-H1703 = system: NCI-H1703
Summary of the method: as §1

NCI-H1299 = system: NCI-H1299
Summary of the method: as §1

SMILES: Nc1ccn([C@@H]2O[C@H](CO)[C@@H](O)[C@@H]2O)c(=O)n1 [Cytarabine] + CCNC(=O)c1noc(-c2cc(C(C)C)c(O)cc2O)c1-c1ccc(CN2CCOCC2)cc1 [Luminespib] (partner 0.01 µM)
- relative viability (NCI-H2009; first compound 0.005 µM): 0.995
- relative viability (NCI-H2009; first compound 0.01581 µM): 1.06
- relative viability (NCI-H2009; first compound 0.05 µM): 1.04
- relative viability (NCI-H2009; first compound 0.1581 µM): 0.775
- relative viability (NCI-H2009; first compound 0.5 µM): 0.239
- relative viability (NCI-H358; first compound 0.005 µM): 0.338
- relative viability (NCI-H358; first compound 0.01581 µM): 0.582
- relative viability (NCI-H358; first compound 0.05 µM): 0.34
- relative viability (NCI-H358; first compound 0.1581 µM): 0.144
- relative viability (NCI-H358; first compound 0.5 µM): 0.181
- relative viability (NCI-H661; first compound 0.005 µM): 0.805
- relative viability (NCI-H661; first compound 0.01581 µM): 0.873
- relative viability (NCI-H661; first compound 0.05 µM): 0.766
- relative viability (NCI-H661; first compound 0.1581 µM): 0.511
- relative viability (NCI-H661; first compound 0.5 µM): 0.37
- relative viability (NCI-H2342; first compound 0.005 µM): 0.597
- relative viability (NCI-H2342; first compound 0.01581 µM): 0.723
- relative viability (NCI-H2342; first compound 0.05 µM): 0.642
- relative viability (NCI-H2342; first compound 0.1581 µM): 0.462
- relative viability (NCI-H2342; first compound 0.5 µM): 0.444
- relative viability (NCI-H460; first compound 0.005 µM): 0.036
- relative viability (NCI-H460; first compound 0.01581 µM): 0.0332
- relative viability (NCI-H460; first compound 0.05 µM): 0.0248
- relative viability (NCI-H460; first compound 0.1581 µM): 0.0172
- relative viability (NCI-H460; first compound 0.5 µM): 0.0144
- relative viability (NCI-H522; first compound 0.005 µM): 1.09
- relative viability (NCI-H522; first compound 0.01581 µM): 0.953
- relative viability (NCI-H522; first compound 0.05 µM): 0.968
- relative viability (NCI-H522; first compound 0.1581 µM): 0.422
- relative viability (NCI-H522; first compound 0.5 µM): 0.438
- relative viability (NCI-H1623; first compound 0.005 µM): 0.321
- relative viability (NCI-H1623; first compound 0.01581 µM): 0.361
- relative viability (NCI-H1623; first compound 0.05 µM): 0.316
- relative viability (NCI-H1623; first compound 0.1581 µM): 0.232
- relative viability (NCI-H1623; first compound 0.5 µM): 0.234

SMILES: CC(=O)O[C@@]12CO[C@@H]1C[C@H](O)[C@@]1(C)C(=O)[C@H](O)C3=C(C)[C@@H](OC(=O)[C@H](O)[C@@H](NC(=O)OC(C)(C)C)c4ccccc4)C[C@@](O)([C@@H](OC(=O)c4ccccc4)[C@H]21)C3(C)C [Docetaxel] + O=C(c1cc(Cc2n[nH]c(=O)c3ccccc23)ccc1F)N1CCN(C(=O)C2CC2)CC1 [Olaparib] (partner 8 µM)
- relative viability (NCI-H1648; first compound 0.0002 µM): 0.773
- relative viability (NCI-H1648; first compound 0.000632 µM): 0.563
- relative viability (NCI-H1648; first compound 0.002 µM): 0.338
- relative viability (NCI-H1648; first compound 0.006325 µM): 0.279
- relative viability (NCI-H1648; first compound 0.02 µM): 0.21
- relative viability (NCI-H2009; first compound 0.0002 µM): 0.606
- relative viability (NCI-H2009; first compound 0.000632 µM): 0.79
- relative viability (NCI-H2009; first compound 0.002 µM): 0.562
- relative viability (NCI-H2009; first compound 0.006325 µM): 0.397
- relative viability (NCI-H2009; first compound 0.02 µM): 0.149
- relative viability (HCC-78; first compound 0.0002 µM): 0.859
- relative viability (HCC-78; first compound 0.000632 µM): 0.777
- relative viability (HCC-78; first compound 0.002 µM): 0.41
- relative viability (HCC-78; first compound 0.006325 µM): 0.329
- relative viability (HCC-78; first compound 0.02 µM): 0.338
- relative viability (NCI-H358; first compound 0.0002 µM): 0.551
- relative viability (NCI-H358; first compound 0.000632 µM): 0.251
- relative viability (NCI-H358; first compound 0.002 µM): 0.136
- relative viability (NCI-H358; first compound 0.006325 µM): 0.147
- relative viability (NCI-H358; first compound 0.02 µM): 0.095
- relative viability (NCI-H661; first compound 0.0002 µM): 0.738
- relative viability (NCI-H661; first compound 0.000632 µM): 0.701
- relative viability (NCI-H661; first compound 0.002 µM): 0.592
- relative viability (NCI-H661; first compound 0.006325 µM): 0.434
- relative viability (NCI-H661; first compound 0.02 µM): 0.406
- relative viability (EBC-1; first compound 0.0002 µM): 0.579
- relative viability (EBC-1; first compound 0.000632 µM): 0.358
- relative viability (EBC-1; first compound 0.002 µM): 0.213
- relative viability (EBC-1; first compound 0.006325 µM): 0.217
- relative viability (EBC-1; first compound 0.02 µM): 0.162
- relative viability (A549; first compound 0.0002 µM): 0.341
- relative viability (A549; first compound 0.000632 µM): 0.0796
- relative viability (A549; first compound 0.002 µM): 0.0511
- relative viability (A549; first compound 0.006325 µM): 0.0681
- relative viability (A549; first compound 0.02 µM): 0.0279
- relative viability (IA-LM; first compound 0.0002 µM): 0.687
- relative viability (IA-LM; first compound 0.000632 µM): 0.326
- relative viability (IA-LM; first compound 0.002 µM): 0.153
- relative viability (IA-LM; first compound 0.006325 µM): 0.0861
- relative viability (IA-LM; first compound 0.02 µM): 0.074
- relative viability (NCI-H2342; first compound 0.0002 µM): 0.525
- relative viability (NCI-H2342; first compound 0.000632 µM): 0.456
- relative viability (NCI-H2342; first compound 0.002 µM): 0.312
- relative viability (NCI-H2342; first compound 0.006325 µM): 0.348
- relative viability (NCI-H2342; first compound 0.02 µM): 0.301
- relative viability (NCI-H460; first compound 0.0002 µM): 0.373
- relative viability (NCI-H460; first compound 0.000632 µM): 0.31
- relative viability (NCI-H460; first compound 0.002 µM): 0.0608
- relative viability (NCI-H460; first compound 0.006325 µM): 0.0428
- relative viability (NCI-H460; first compound 0.02 µM): 0.0276
- relative viability (NCI-H522; first compound 0.0002 µM): 0.653
- relative viability (NCI-H522; first compound 0.000632 µM): 0.459
- relative viability (NCI-H522; first compound 0.002 µM): 0.532
- relative viability (NCI-H522; first compound 0.006325 µM): 0.499
- relative viability (NCI-H522; first compound 0.02 µM): 0.377
- relative viability (Calu-6; first compound 0.0002 µM): 0.604
- relative viability (Calu-6; first compound 0.000632 µM): 0.454
- relative viability (Calu-6; first compound 0.002 µM): 0.243
- relative viability (Calu-6; first compound 0.006325 µM): 0.128
- relative viability (Calu-6; first compound 0.02 µM): 0.0895
- relative viability (NCI-H1703; first compound 0.0002 µM): 0.372
- relative viability (NCI-H1703; first compound 0.000632 µM): 0.538
- relative viability (NCI-H1703; first compound 0.002 µM): 0.204
- relative viability (NCI-H1703; first compound 0.006325 µM): 0.174
- relative viability (NCI-H1703; first compound 0.02 µM): 0.0787
- relative viability (NCI-H1299; first compound 0.0002 µM): 0.95
- relative viability (NCI-H1299; first compound 0.000632 µM): 0.9
- relative viability (NCI-H1299; first compound 0.002 µM): 0.628
- relative viability (NCI-H1299; first compound 0.006325 µM): 0.351
- relative viability (NCI-H1299; first compound 0.02 µM): 0.241

SMILES: COc1cc2nccc(Oc3ccc(NC(=O)Nc4cc(C)on4)c(Cl)c3)c2cc1OC [Tivozanib] + CCNC(=O)c1noc(-c2cc(C(C)C)c(O)cc2O)c1-c1ccc(CN2CCOCC2)cc1 [Luminespib] (partner 0.01 µM)
- relative viability (NCI-H2009; first compound 0.005 µM): 1.04
- relative viability (NCI-H2009; first compound 0.01581 µM): 1.01
- relative viability (NCI-H2009; first compound 0.05 µM): 0.973
- relative viability (NCI-H2009; first compound 0.1581 µM): 1.04
- relative viability (NCI-H2009; first compound 0.5 µM): 0.984
- relative viability (NCI-H358; first compound 0.005 µM): 0.336
- relative viability (NCI-H358; first compound 0.01581 µM): 0.568
- relative viability (NCI-H358; first compound 0.05 µM): 0.478
- relative viability (NCI-H358; first compound 0.5 µM): 0.339
- relative viability (NCI-H661; first compound 0.005 µM): 0.958
- relative viability (NCI-H661; first compound 0.01581 µM): 0.956
- relative viability (NCI-H661; first compound 0.05 µM): 0.982
- relative viability (NCI-H661; first compound 0.1581 µM): 0.998
- relative viability (NCI-H661; first compound 0.5 µM): 0.953
- relative viability (NCI-H2342; first compound 0.005 µM): 0.673
- relative viability (NCI-H2342; first compound 0.01581 µM): 0.656
- relative viability (NCI-H2342; first compound 0.05 µM): 0.802
- relative viability (NCI-H2342; first compound 0.5 µM): 0.626
- relative viability (NCI-H460; first compound 0.005 µM): 0.0252
- relative viability (NCI-H460; first compound 0.01581 µM): 0.0365
- relative viability (NCI-H460; first compound 0.05 µM): 0.0375
- relative viability (NCI-H460; first compound 0.1581 µM): 0.0404
- relative viability (NCI-H460; first compound 0.5 µM): 0.0362
- relative viability (NCI-H522; first compound 0.005 µM): 0.903
- relative viability (NCI-H522; first compound 0.01581 µM): 1.01
- relative viability (NCI-H522; first compound 0.05 µM): 1.03
- relative viability (NCI-H522; first compound 0.1581 µM): 1.16
- relative viability (NCI-H522; first compound 0.5 µM): 1.22
- relative viability (NCI-H1623; first compound 0.005 µM): 0.466
- relative viability (NCI-H1623; first compound 0.01581 µM): 0.55
- relative viability (NCI-H1623; first compound 0.05 µM): 0.602
- relative viability (NCI-H1623; first compound 0.5 µM): 0.504
